# Experimental data reported in ChEMBL document CHEMBL1201862, “PubChem BioAssay data set” (2004).
# Calls of active or inactive are those of the source.
# Experiments:
# [1] = A375 melanoma cell viability loss, dose response, counter-screen for MITF inhibitor project, CellTiter-Glo luminescence, dry powder, set 4 (AID 624364); format: functional, cell-based; details: A-375;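 note: A375 melanoma cells are MITF independent so this is a counter screen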
# [2] = A375 melanoma cell cytotoxicity, dose response, counter-screen for MITF inhibitor project, CellTiter-Glo luminescence, dry powder, set 2 (AID 624489); format: functional, cell-based; details: A-375;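 note: actives are compounds lowering A375 viability meaning general cytotoxicity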
# HEK293 [3] = assay: NOD1 signaling inhibitors, primary screen, cell-based, luminescence, uHTS (AID 1578); format: functional; details: Homo sapiens
# HEK293 [4] = assay: cells; format: functional, cell-based; details: Homo sapiens
# HEK293 [5] = assay: cells; format: functional, cell-based; details: Homo sapiens; remark: listed apart in the source
# HEK293 [6] = assay: NOD2 signaling inhibitors in MDP-stimulated cells, cell-based, uHTS, luminescence (AID 2001); format: functional; details: Homo sapiens
# Tumor necrosis factor = Tumor necrosis factor (Homo sapiens, UniProt P01375); assay: TNFa-triggered NF-kB activation inhibitors, SAR follow-up, cell-based, revised (AID 2337); format: functional
# Sequence of Tumor necrosis factor (P01375 whole entry, the tested form may be a part): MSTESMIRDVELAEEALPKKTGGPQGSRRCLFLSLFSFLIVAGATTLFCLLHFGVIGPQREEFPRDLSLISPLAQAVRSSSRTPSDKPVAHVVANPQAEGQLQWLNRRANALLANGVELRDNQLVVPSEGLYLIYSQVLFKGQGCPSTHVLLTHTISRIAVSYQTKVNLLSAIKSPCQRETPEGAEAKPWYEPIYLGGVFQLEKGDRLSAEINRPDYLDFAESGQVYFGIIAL
# [7] = molecular target: T1, Nucleotide-binding oligomerization domain-containing protein 1 (Homo sapiens, UniProt Q9Y239); assay: NOD1 signaling inhibitors, SAR follow-up, revised (AID 2333); format: functional
# T1 sequence (Q9Y239 whole entry): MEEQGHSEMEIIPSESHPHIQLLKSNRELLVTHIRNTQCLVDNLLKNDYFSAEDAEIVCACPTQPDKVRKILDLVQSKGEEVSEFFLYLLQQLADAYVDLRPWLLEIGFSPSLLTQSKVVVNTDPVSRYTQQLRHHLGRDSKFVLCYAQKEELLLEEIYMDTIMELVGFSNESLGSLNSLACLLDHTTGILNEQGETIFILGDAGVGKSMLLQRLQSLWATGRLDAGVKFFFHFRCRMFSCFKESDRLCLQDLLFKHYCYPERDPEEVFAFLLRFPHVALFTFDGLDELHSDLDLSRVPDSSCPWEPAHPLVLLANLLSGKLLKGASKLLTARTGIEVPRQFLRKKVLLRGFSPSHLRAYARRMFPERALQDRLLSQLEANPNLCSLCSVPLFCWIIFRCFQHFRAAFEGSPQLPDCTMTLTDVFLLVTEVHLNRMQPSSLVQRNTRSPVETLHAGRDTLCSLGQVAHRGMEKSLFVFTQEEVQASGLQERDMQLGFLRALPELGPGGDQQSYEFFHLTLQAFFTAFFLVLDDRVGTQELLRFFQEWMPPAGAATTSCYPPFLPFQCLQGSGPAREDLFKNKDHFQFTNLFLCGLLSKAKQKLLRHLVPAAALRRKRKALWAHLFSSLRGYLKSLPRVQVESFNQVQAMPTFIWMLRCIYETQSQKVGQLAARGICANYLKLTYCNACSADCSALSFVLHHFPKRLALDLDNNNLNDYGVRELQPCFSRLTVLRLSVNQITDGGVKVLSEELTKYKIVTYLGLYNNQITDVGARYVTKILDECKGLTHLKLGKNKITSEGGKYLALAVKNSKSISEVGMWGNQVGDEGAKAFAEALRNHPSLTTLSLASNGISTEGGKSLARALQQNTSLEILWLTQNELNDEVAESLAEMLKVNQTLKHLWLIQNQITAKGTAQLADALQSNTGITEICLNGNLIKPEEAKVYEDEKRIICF
# [8] = Shn3 3'UTR reporter inhibitors, dose response, cell-based, Clone20 osteoblasts, firefly luciferase, cherry-picked (AID 624132); format: functional;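 note: firefly luciferase luminescence from reporter carrying the Shn3 3'UTR in osteoblasts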
# [9] = HepG2 cell cytotoxicity, dose response, cytotoxicity control for Shn3 inhibitor project, CellTiter-Glo, cherry-picked (AID 624134); format: functional, cell-based
# [10] = control 3'UTR Renilla luciferase suppression, dose response, counter-screen for Shn3 inhibitor project, cell-based, Clone20-Shn3RL, cherry-picked (AID 624133); format: functional
# [11] = reduction of Shn3 3'UTR firefly luciferase signal, dose response, Schnurri-3 inhibitor project, cell-based, Clone20 osteoblasts, cherry-pick, set 2 (AID 720490); format: functional;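 note: actives lower the luminescence signal as inhibitors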
# [12] = inhibitors of control Renilla luciferase reporter, dose response, counter-screen for Shn3 3'UTR targeting project, Clone20-Shn3RL cells, dual-Glo, cherry-pick, set 2 (AID 720724); format: functional, cell-based; details: Dual-Go Shn3RL
# HEK293 [13] = assay: cells; details: Homo sapiens
# [14] = molecular target: Photoreceptor-specific nuclear receptor (Homo sapiens, UniProt Q9Y5X4); format: functional, cell-based;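 note: CHO-S cells with Gal4-NCOR and VP16-NR2E3 two-hybrid luciferase reporter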
# Sequence of Photoreceptor-specific nuclear receptor (Q9Y5X4 whole entry, the tested form may be a part): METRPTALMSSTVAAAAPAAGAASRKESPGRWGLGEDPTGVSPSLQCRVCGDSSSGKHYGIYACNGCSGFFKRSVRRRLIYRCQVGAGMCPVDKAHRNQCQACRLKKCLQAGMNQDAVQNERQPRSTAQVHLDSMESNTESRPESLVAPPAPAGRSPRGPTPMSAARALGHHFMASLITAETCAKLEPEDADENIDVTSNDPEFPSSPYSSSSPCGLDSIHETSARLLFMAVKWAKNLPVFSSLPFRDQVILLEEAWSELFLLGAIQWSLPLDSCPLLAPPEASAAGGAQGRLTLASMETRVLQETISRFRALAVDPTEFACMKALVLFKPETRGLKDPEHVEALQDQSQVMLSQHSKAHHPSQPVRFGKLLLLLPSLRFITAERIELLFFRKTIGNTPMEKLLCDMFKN
# [15] = molecular target: COUP transcription factor 2 (Homo sapiens, UniProt P24468); assay: Luminescence-based cell-based high throughput dose response assay to identify inhibitors of COUP-TFII (NR2F2).; format: functional;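 note: HEK293 cells transiently cotransfected with COUP-TFII expression vector and reporter; luciferase reporter luminescence driven by COUP-TFII from the pX2-168 reporter plasmid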
# Sequence of COUP transcription factor 2 (P24468 whole entry): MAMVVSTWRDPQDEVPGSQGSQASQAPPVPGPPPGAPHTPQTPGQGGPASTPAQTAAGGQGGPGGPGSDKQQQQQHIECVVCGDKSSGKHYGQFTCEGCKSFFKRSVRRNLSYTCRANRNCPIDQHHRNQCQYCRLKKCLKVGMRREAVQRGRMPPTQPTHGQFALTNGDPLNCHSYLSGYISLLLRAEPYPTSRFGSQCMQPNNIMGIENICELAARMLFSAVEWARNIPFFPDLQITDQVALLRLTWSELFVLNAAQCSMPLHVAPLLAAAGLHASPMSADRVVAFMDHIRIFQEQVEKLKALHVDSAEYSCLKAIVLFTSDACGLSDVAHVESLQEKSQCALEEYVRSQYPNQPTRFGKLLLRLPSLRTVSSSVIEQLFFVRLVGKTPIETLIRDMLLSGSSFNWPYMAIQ
# [16] = Luminescence Cell-Based Dose Confirmation HTS to Identify Activators of 5'UTR Stem-Loop Driven Alpha-Synuclein mRNA Translation in H4 Neuroglioblastoma Cells. [Related pubchem assays: 1829 (Project Summary), 1814 (Primary HTS)]; format: functional
# [17] = Luminescence Cell-Based Dose Response HTS to Identify Activators of Luciferase Translation or Activity in H4 […] Cells. [Related pubchem assays: 1829 (Project Summary), 1814 (Primary HTS)]; format: functional
# cells [18] = format: functional, cell-based
# H4 = assay: Luminescence Cell-Based Dose Response HTS to Identify Activators of 5'UTR Stem-Loop Driven Prion Protein mRNA Translation in H4 Neuroglioblastoma Cells. [Related pubchem assays: 1829 (Project Summary), 1814 (Primary HTS)]; format: functional; details: Homo sapiens
# cells [19] = format: functional, cell-based; remark: listed apart in the source
# [20] = molecular target: T2, Oxysterols receptor LXR-beta (Homo sapiens, UniProt P55055); format: functional, cell-based;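 note: agonist activity at LXR measured by a cell-based luminescence readout across a dose range, run as a counterscreen for daf-12 agonists; HEK293 cells with Gal4-LXR fusion and GAL4-driven luciferase reporter; potency for activation of Gal4-LXR reporter so compounds are agonists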
# T2 sequence (P55055 whole entry): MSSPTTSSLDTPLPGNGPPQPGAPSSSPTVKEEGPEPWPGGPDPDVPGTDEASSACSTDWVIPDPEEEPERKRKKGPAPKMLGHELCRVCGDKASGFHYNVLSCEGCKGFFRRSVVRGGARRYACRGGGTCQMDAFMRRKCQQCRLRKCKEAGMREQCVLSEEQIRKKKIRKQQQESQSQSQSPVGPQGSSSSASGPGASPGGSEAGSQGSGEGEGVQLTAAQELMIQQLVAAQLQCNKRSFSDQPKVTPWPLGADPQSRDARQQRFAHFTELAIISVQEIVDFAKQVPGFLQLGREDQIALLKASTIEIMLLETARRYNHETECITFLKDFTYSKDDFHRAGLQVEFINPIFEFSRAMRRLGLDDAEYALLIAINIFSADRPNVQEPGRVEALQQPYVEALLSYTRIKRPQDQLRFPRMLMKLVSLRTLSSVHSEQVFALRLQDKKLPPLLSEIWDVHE
# fMet-Leu-Phe receptor = fMet-Leu-Phe receptor (Homo sapiens, UniProt P21462); assay: FPR ligands, dose response (AID 519); format: functional
# Sequence of fMet-Leu-Phe receptor (P21462 whole entry): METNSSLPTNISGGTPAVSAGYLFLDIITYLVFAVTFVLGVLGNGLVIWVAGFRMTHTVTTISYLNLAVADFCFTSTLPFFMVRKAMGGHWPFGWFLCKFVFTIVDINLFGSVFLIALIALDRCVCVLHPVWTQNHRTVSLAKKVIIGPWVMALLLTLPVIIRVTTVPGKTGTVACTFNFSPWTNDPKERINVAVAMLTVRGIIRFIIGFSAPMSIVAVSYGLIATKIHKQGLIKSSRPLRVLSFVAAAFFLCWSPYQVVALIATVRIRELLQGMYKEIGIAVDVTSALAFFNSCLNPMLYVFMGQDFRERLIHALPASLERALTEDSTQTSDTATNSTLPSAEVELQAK
compound,measurement,setting,value
COc1ccc(C2=C(NC(=O)c3ccc4ccccc4c3)C(=O)c3ccccc3C2=O)cc1,AC50,[1],> 70 µM (inactive)
same,AC50,[2],> 70 µM (inactive)
c1ccc(CNc2ncnc3scc(-c4cccs4)c23)nc1,EC50,HEK293 [3],3.58 µM (active)
same,IC50,HEK293 [4],6 µM (active)
same,IC50,HEK293 [5],19.8 µM (active)
same,IC50,HEK293 [6],5.05 µM (active)
same,IC50,Tumor necrosis factor,3.22 µM (active)
same,IC50,[7],2.69 µM (active)
same,AC50,[8],3.59 µM (active)
same,AC50,[9],67.1 µM (active)
same,AC50,[10],29.8 µM (active)
same,AC50,[11],3.71 µM (active)
same,AC50,[12],6.34 µM (active)
same,IC50,HEK293 [13],13.5 µM (active)
CCCc1cc(=O)n2nc(N3CCC(C(=O)N4CCN(c5ccc(OC)cc5)CC4)CC3)sc2n1,IC50,[14],4.09 µM (active)
same,IC50,[15],7.18 µM (active)
Cc1ccc(NC(S)=NC(=NS(=O)(=O)c2ccccc2)c2ccccc2)cc1,EC50,[16],5.09 µM (active)
same,EC50,[17],16.5 µM (active)
same,EC50,cells [18],> 350 µM (not active)
same,EC50,H4,6.51 µM (active)
same,EC50,cells [19],202 µM (active)
same,EC50,[20],> 67.5 µM (inactive)
Cc1nc(C)c(C(=O)C2=C(O)C(=O)N(CCCn3ccnc3)C2c2ccc(Cl)cc2)s1 (stereo not drawn),Ki,fMet-Leu-Phe receptor,> 66.7 µM (inactive)
